Assay results from patent US10010584B2, “Treatment of depressive disorders” (Blanchette Rockefeller Neuroscience Institute, priority 2004, dated 2018).
Like-named read-outs stand apart in the source and are kept apart here.

How the values were obtained:
[1] = system: PKC; settings: cited from earlier work
[2] = system: Adult Wistar rats; assay: Open-space-swimming test; assay type: in vivo, rat; settings: for percentages of decreases in the distance moved on the third day (using the decrease of control groups as 100%): 10 mg/kg×3 per day i.p., n=8; for mobility (distance moved) / immobility compared with control group: 10 mg/kg×3 per day, 23, 2 and 1 h before trial sessions, saline control
Method: Adult Wistar rats (180-200 g) were housed in a temperature-controlled (20-24° C.) room for at least a week prior to experimentation, allowed free access to food and water, and kept on a 12-h light/dark cycle. They were randomly assigned to different groups (eight each) and were moved to the test room in their home cages at least 1 h before trials. Rats were individually placed into a round pool with a diameter of 152 cm and height of 60 cm and was filled with 40 cm H2O (22±1° C.). The room and pool are part of the started set-up used for spatial water maze task. (Sun et al. (2002) J. Pharmacol. Exp. Ther. 300: 408-416). The tests for different drug treatment and control groups were in a counterbalanced order. No escape was available in these trials. Rats were free to swim (or not to swim) for 15 min and then removed and returned to their home cage after drying. Observers were obscured from sight of the rats during the trials, but were able to observe the animals' behaviors on a video screen monitor during trials. The same procedure (15 min session per day) was repeated 24 h later and continued for 3 additional days. Drugs were dissolved in a saline solution for test groups and saline alone was used in the control groups. Imipramine (10 mg/kg×3 day, i.p.), iproniazid (10 mg/kg×3 per day, i.p.), mianserin (10 mg/kg×3 per day, i.p.), alaproclate (10 mg/kg×3 per day), or saline were administered between the swimming trial sessions at 23, 2, and 1 h before the second, third, and fourth trial sessions, respectively. The rationale for the three doses before test trials is the more consistent predictive effects than those of a single dose (Porsolt et al. (1977) Nature 266: 730-730-732; Porsolt et al. (1978) Eur J. Pharmacol. 47: 379-391; Poncelet et al, (1986) Psychopharmacology 90: 139-141). The swimming/drifting path was recorded with a video-tracking system that was also used for the spatial water maze task in other studies (Sun et al., 2002; Sun and Alkon, 2002a). The system tracks the animal's position by recording sequential x/y-coordinates of trigger events (video signal above track level) and calculating the distance, in the pool (sample period: 0.055 s) and adds the distance at pre-set intervals (15 min) during each trial. The tracking system, however, neither distinguishes nor determines the duration of any period of mobility or immobility. To evaluate whether the distance moved, as recorded by the tracking system, reflects the duration of active swimming, the investigator(s) also recorded the duration of active swimming on-line via the video screen monitor for a direct comparison of the two parameters.
Depressive behavior in rats was induced by placing the animals in an open-space swimming apparatus, as described herein, for 15 minutes per trial per day. The animals were subjected to three trials over the course of three days. The animals were divided into three groups: control rats (8); phenylalanine rats (10); and imipramine rats (10). The control rats received a single i.v. dose of saline in the tail vein, 3.5 hours before the second trial. […] Rats in the imipramine group received 3 i.p. doses (10 mg/kg) at 23, 2 and 1 hour before the first, second and third trials, respectively.
Depressive behavior in rats was induced by placing the animals in an open-space swimming apparatus, as described herein, for 15 minutes per trial per day. The animals were subjected to three trials over the course of three days. […] The control rats received a single i.v. dose of saline in the tail vein, 3.5 hours before the second trial.

[3] = system: rats; settings: forced swimming test, 15 mg/kg×3 per day i.p., n=5; cited from earlier work
[4] = target: PKC; settings: cited from earlier work; remark: listed apart in the source
[5] = target: protein kinase C; settings: (−)-enantiomer; cited from earlier work
[6] = (−)-enantiomer; cited from earlier work
[7] = system: squamous cell carcinoma and melanoma; settings: used topically; cited from earlier work
[8] = system: murine leukemias and solid tumors; settings: cited from earlier work
[9] = system: PKC; settings: K562 cells; cited from earlier work
[10] = system: cyclin dependent kinase 2 (Cdk2); settings: at 5 ng/ml; cited from earlier work
[11] = system: humans; settings: cited from earlier work
[12] = target: PKC; settings: competes with [3H]phorbol dibutyrate; read-out: Ki for binding; cited from earlier work
[13] = target: T1, PKCε (Homo sapiens, UniProt Q02156); settings: cited from earlier work
T1 sequence (Q02156 1-737): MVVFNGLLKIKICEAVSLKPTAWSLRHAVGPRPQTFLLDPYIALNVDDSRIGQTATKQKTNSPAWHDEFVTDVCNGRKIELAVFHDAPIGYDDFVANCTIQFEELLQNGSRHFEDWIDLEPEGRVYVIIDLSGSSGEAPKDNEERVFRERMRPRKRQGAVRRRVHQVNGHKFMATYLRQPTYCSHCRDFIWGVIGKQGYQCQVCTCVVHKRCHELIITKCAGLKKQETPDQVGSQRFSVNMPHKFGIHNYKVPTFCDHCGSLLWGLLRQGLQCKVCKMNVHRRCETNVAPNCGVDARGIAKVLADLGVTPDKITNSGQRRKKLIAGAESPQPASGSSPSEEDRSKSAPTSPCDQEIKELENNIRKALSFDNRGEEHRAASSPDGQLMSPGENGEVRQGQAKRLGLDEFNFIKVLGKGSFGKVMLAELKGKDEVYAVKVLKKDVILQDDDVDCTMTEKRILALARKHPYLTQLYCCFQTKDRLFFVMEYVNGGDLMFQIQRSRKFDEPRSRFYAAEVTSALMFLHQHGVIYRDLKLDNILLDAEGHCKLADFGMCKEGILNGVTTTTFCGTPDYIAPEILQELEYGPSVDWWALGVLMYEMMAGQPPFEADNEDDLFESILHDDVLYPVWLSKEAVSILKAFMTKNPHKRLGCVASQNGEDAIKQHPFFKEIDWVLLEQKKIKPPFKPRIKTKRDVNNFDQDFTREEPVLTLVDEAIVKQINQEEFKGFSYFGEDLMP

[14] = system: NCI 60 cell line screen; settings: cited from earlier work
[15] = target: PKCa (Homo sapiens, UniProt P17252); settings: cited from earlier work
[16] = Examples 7-13, present tense, no dose, no data

Q: For CCCCCCCNS(=O)(=O)c1cccc2c(Cl)cccc12 [SC-10, N-(n-heptyl)-5-chloro-1-naphthalenesulfonamide], which “activation of PKC” value [1] is on record?
A: activates PKC in a calcium-dependent manner

Q: Which “percentages of decreases in the distance moved on the third day (using the decrease of control groups as 100%)” value ([2]; rats) does the source give for CN(C)CCCN1c2ccccc2CCc2ccccc21 [imipramine] here?
A: 49.8±7.6%

Q: What about the “immobility % as control” value [3] of the same molecule?
A: 61.5±6.5%

Q: For CCCCCCCC(=O)OC1C(=CC(=O)OC)CC2CC(CO)OC(=O)CC(O)CCOC(C(C)(C)C)CC3CCOC(C=CC(C)(C)C1(O)O2)O3 (stereo not drawn) [bryolog 3], which Ki ([4]; A-ring bryologs, read-out: affinity for PKC) is on record?
A: 6.5 nM

Q: With N[C@@H](Cc1ccc(F)cc1)C(=O)O [Effector 5, 4-fluoro phenylalanine] as the molecule, how does the “immobility compared with control group and imipramine group” value [2, 16] read?
A: effective in reducing immobility

Q: Which “percentages of decreases in the distance moved on the third day (using the decrease of control groups as 100%)” value ([2]; rats) does the source give for CN1CCN2c3ccccc3Cc3ccccc3C2C1 (stereo not drawn) [mianserin] here?
A: 33.3±6.3%

Q: What about the “immobility % as control” value [3] of the same molecule?
A: 66.5±7.0%

Q: With N[C@@H](Cc1ccc(O)cc1)C(=O)O [Effector 4, 4-hydroxy phenylalanine] as the molecule, how does the “immobility compared with control group and imipramine group” value [2, 16] read?
A: effective in reducing immobility

Q: Which results are given for CCCCCCCCc1ccc2c3c(c[nH]c13)C[C@@H](CO)NC(=O)[C@H](C(C)C)N2C [octylindolactam V, Octylindolactam V]?
A: EC50 [5]: 29 nM; metabolic stability [6]: greater metabolic stability

Q: Which “immobility compared with control group and imipramine group” value ([2]; rats, single i.v. dose in the tail vein 3.5 hours before the second trial) does the source give for N[C@@H](Cc1ccccc1)C(=O)O [Effector 2, phenylalanine] here?
A: effective in reducing the immobility

Q: For C/C=C(/C)C(=O)O[C@H]1C(C)=C[C@]23C(=O)[C@@H](C=C(CO)[C@@H](O)[C@]12O)[C@H]1[C@@H](C[C@H]3C)C1(C)C [Ingenol-3-angelate], which antitumor activity [7] is on record?
A: possesses antitumor activity

Q: For c1c[nH]cn1 [Effector 14, Imidazole], which “immobility compared with control group and imipramine group” value [2, 16] is on record?
A: effective in reducing immobility

Q: For C=C(C)[C@]12C[C@@H](COC(=O)c3ccccc3)[C@@]34OC5(O[C@@H]1[C@@H]3C1O[C@]1(CO)[C@@H](O)[C@@]1(O)[C@H]4[C@@H](C(C)CCCCCC[C@@H]5O)C(C)[C@@H]1OC(=O)c1ccccc1)O2 (stereo partly drawn) [Gnidimacrin], which “concentrations of potent antitumor activity” value [8] is on record?
A: 0.1 to 1 nM

Q: And the “concentration at which it acts as a PKC activator” value [9]?
A: ≈ 3 nM

Q: What about the “inhibition of Cdk2” value [10] of the same molecule?
A: 100%

Q: Which results are given for CC(N)C(=O)OC(C)(C)Cc1ccc(Cl)cc1 (stereo not drawn) [Alaproclate, alaproclate]?
A: duration of active swimming compared with control group ([2]; rats, 10 mg/kg×3 per day): significantly longer; mobility (distance moved) / immobility compared with control group ([2]; rats): effective in reducing the immobility

Q: With CC(C)NNC(=O)c1ccncc1 [iproniazid] as the molecule, how does the “percentages of decreases in the distance moved on the third day (using the decrease of control groups as 100%)” value ([2]; rats) read?
A: 44.0±7.7%

Q: And the “mobility (distance moved) / immobility compared with control group” value ([2]; rats)?
A: appeared more effective at the dose given than mianserin and imipramine

Q: And the “immobility % as control” value [3]?
A: 87.6±7.3%

Q: Which results are given for CCCCCCCC(=O)O[C@H]1/C(=C/C(=O)OC)C[C@H]2C[C@H](CO)OC(=O)C[C@H](O)C[C@@H]3CCC[C@H](C[C@@H]4CCO[C@H](/C=C/C(C)(C)[C@]1(O)O2)O4)O3 [Analog 1]?
A: affinity for PKC (in words) [4]: highest affinity for PKC; potency relative to bryostatin-1 [4]: about 100 times; Ki ([4]; read-out: PKC Affin): 0.25 nM

Q: What does the source list for CCC/C=C/C=C/C(=O)O[C@H]1/C(=C/C(=O)OC)C[C@H]2C[C@H]([C@@H](C)O)OC(=O)C[C@H](O)C[C@@H]3C[C@H](OC(C)=O)C(C)(C)[C@](O)(C[C@@H]4C/C(=C/C(=O)OC)C[C@H](/C=C/C(C)(C)[C@]1(O)O2)O4)O3 [Bryostatin 1, bryostatin-1]?
A: difference from imipramine group (10 mg/kg i.p. ×3) ([2]; rats, single i.v. dose 80 μg/kg): No significant difference; immobility compared with control group and imipramine group ([2]; rats, single i.v. dose 80 μg/kg in the tail vein 3.5 hours before the second trial): effective in reducing immobility; main adverse reaction [11]: myalgia

Q: With CC1=C[C@]23C(=O)[C@@H](C=C(COC(=O)c4ccccc4)[C@@H](O)[C@]2(O)[C@H]1OC(=O)c1ccccc1)[C@H]1[C@@H](C[C@H]3C)C1(C)C [Ingenol 3,20-dibenzoate] as the molecule, how does the Ki [12] read?
A: 240 nM

Q: Which “concentration of maximal effect” value ([13]; activation of PKCε) does the source give for CCCCCC1CC1CC1CC1CCCCCCCC(=O)O (stereo not drawn) [DCP-LA, 2-[(2-pentylcyclopropyl)methyl]cyclopropaneoctanoic acid] here?
A: 100 nM

Q: And the “isoform selectivity of PKC activation” value [13]?
A: selectively activates PKCε

Q: Which results are given for CC1=CC[C@H](C)C(C)(C)[C@@H]1/C=C/C(C)=C/CC[C@@]1(CO)[C@H](CCCO)/C(=C(/C)C=O)CC[C@]1(C)O [Iripallidal]?
A: GI50 (concentration required to inhibit growth by 50%) [14]: from micromolar to nanomolar range; Ki [15]: 75.6 nM

B1: FGF-18: peptide consisting of 207 amino acids, member of the fibroblast growth factor family (protein, UniProt O76093 28-207, looked up)
Fibroblast growth factor 18: EENVDFRIHVENQTRARDDVSRKQLRLYQLYSRTSGKHIQVLGRRISARGEDGDKYAQLLVETDTFGSQVRIKGKETEFYLCMNRKGKLVGKPDGTSKECVFIEKVLENNYTALMSAKYSGWYVGFTKKGRPRKGPKTRENQQDVHFMKRYPKGQPELQKPFKYTTVTKRSRRIRPTHPA
Q: With B1 as the molecule, how does the “immobility compared with control group and imipramine group” value [2, 16] read?
A: effective in reducing immobility
